# Laboratory results as given in patent publication US20020026053A1, “Novel 3-(substituted) -2- indolinones compounds and use thereof as inhibitors of protein kinase activity” (priority 1997, published 2002).
# Biological target: T1, EGFR (Homo sapiens, UniProt P00533)
# T1 construct: endogenous in cells; host or cells: A431 cells (lysate, captured with SUMO1 anti-EGFR antibody)
# Experiment: Biochemical EGFR Assay
# Parameters: concentration or dose not given beside the values
# Procedure, shortened: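 EGFR from A431 lysate was captured on anti-EGFR-coated wells and preincubated 30 min with compound (diluted 1:10 in TBS) at room temperature. After ATP/MnCl2 phosphorylation for 5 min, the reaction was stopped with EDTA. Phosphotyrosine was detected by ELISA (anti-phosphotyrosine, peroxidase conjugate, ABTS) at 410 nm.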
# T1 sequence (P00533 25-1210): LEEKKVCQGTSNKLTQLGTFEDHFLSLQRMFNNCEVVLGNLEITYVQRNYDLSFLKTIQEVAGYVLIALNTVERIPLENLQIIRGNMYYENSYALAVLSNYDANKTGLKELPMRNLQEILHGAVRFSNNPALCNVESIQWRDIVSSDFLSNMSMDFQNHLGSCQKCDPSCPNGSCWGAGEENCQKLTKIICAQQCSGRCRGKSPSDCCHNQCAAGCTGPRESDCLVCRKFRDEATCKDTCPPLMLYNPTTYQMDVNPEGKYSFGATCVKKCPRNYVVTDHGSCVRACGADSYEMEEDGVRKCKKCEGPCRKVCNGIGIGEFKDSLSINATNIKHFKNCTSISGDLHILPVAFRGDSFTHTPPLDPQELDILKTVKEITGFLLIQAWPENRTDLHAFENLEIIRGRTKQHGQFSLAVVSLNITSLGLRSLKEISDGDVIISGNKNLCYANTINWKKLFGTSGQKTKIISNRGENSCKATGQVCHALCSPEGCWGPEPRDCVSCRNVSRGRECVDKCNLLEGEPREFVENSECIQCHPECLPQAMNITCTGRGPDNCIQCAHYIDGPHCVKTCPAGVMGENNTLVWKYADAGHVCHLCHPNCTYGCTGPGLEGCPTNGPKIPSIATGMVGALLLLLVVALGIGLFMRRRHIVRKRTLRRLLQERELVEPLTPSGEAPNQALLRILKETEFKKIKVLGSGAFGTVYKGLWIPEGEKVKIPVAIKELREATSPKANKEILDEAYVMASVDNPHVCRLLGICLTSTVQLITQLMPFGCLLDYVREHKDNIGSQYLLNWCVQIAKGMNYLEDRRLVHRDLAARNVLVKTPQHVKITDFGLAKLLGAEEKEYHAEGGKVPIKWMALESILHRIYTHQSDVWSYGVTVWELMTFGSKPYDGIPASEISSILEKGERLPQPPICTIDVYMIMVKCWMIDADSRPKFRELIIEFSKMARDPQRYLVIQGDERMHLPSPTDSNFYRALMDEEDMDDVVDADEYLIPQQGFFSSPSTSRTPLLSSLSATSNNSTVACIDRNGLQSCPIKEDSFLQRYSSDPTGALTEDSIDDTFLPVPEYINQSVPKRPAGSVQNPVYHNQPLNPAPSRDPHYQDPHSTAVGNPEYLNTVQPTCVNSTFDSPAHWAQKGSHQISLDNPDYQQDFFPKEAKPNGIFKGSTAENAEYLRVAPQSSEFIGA
row,SMILES,Biochem EGFR % Inhibition (P.167)
1,Cc1c(Br)cc(Br)c2c1C(=Cc1ccc(O)cc1)C(=O)N2 [10719/H07],−2.8%
2,Cc1c(Br)cc(Br)c2c1C(=Cc1ccc(N(C)C)cc1)C(=O)N2 [10719/H08],2.9%
3,Cc1c(Br)cc(Br)c2c1C(=Cc1ccc(F)cc1Cl)C(=O)N2 [10719/H09],−33.5%
4,Cc1c(Br)cc(Br)c2c1C(=Cc1cccc([N+](=O)[O-])c1)C(=O)N2 [10719/H10],14.6%
5,Cc1c(Br)cc(Br)c2c1C(=Cc1ccc(F)cc1C(F)(F)F)C(=O)N2 [10719/H11],−12.0%
6,Cc1c(Br)cc(Br)c2c1C(=Cc1c(F)cc(F)cc1F)C(=O)N2 [10720/H02],17.0%
7,COc1cc(O)ccc1C=C1C(=O)Nc2c(Br)cc(Br)c(C)c21 [10720/H03],−13.9%
8,N#Cc1ccccc1C=C1C(=O)Nc2ccc(CCCl)cc21 [10735/G07],4.6%
9,O=C1Nc2ccc(CCCl)cc2C1=Cc1c(F)cccc1F [10735/G08],1.6%
10,O=C1Nc2ccc(CCCl)cc2C1=Cc1cccc2ccccc12 [10735/G09],19.8%
11,O=C1Nc2ccc(CCCl)cc2C1=Cc1ccc(Cl)cc1Cl [10735/G10],4.5%
12,O=C1Nc2ccc(CCCl)cc2C1=Cc1ccc(-c2ccccc2)cc1 [10735/G11],2.9%
13,Cc1ccccc1C=C1C(=O)Nc2c(Br)cc(Br)c(C)c21 [10735/H02],3.6%
14,Cc1c(Br)cc(Br)c2c1C(=Cc1ccc(F)c(F)c1)C(=O)N2 [10735/H03],−1.0%
15,Cc1c(Br)cc(Br)c2c1C(=Cc1cc(F)cc(F)c1)C(=O)N2 [10735/H04],−9.3%
16,Cc1c(Br)cc(Br)c2c1C(=Cc1cccc(C(F)(F)F)c1)C(=O)N2 [10735/H05],−0.3%
17,Cc1c(Br)cc(Br)c2c1C(=Cc1cc(C(F)(F)F)cc(C(F)(F)F)c1)C(=O)N2 [10735/H06],−14.2%
18,Cc1c(Br)cc(Br)c2c1C(=Cc1ccccc1C#N)C(=O)N2 [10735/H07],3.8%
19,Cc1c(Br)cc(Br)c2c1C(=Cc1c(F)cccc1F)C(=O)N2 [10735/H08],6.8%
20,Cc1c(Br)cc(Br)c2c1C(=Cc1cccc3ccccc13)C(=O)N2 [10735/H09],−10.7%
21,Cc1c(Br)cc(Br)c2c1C(=Cc1ccc(Cl)cc1Cl)C(=O)N2 [10735/H10],−16.3%
22,Cc1c(Br)cc(Br)c2c1C(=Cc1ccc(-c3ccccc3)cc1)C(=O)N2 [10735/H11],−4.2%
23,O=C1Nc2c(Br)cc(Br)cc2C1=Cc1ccc(Cl)cc1 [10736/A02],7.7%
24,O=C1Nc2c(Br)cc(Br)cc2C1=Cc1ccccc1C(F)(F)F [10736/A03],24.2%
25,Cc1cccc(C=C2C(=O)Nc3c(Br)cc(Br)cc32)c1 [10736/A04],14.1%
26,Cc1ccc(C=C2C(=O)Nc3c(Br)cc(Br)cc32)cc1 [10736/A05],80.1%
27,O=C1Nc2c(Br)cc(Br)cc2C1=Cc1cccc(Cl)c1 [10736/A06],34.4%

row,SMILES,Biochem EGFR % Inhibition (P.167)
1,O=C1Nc2c(Br)cc(Br)cc2C1=Cc1cccc(F)c1 [10736/A07],30.2%
2,O=C1Nc2c(Br)cc(Br)cc2C1=Cc1ccccc1F [10736/A08],27.6%
3,CCc1ccc(C=C2C(=O)Nc3c(Br)cc(Br)cc32)cc1 [10736/A09],20.0%
4,COc1cccc(C=C2C(=O)Nc3c(Br)cc(Br)cc32)c1 [10736/A10],−0.1%
5,O=C1Nc2c(Br)cc(Br)cc2C1=Cc1ccccc1Cl [10736/A11],−29.3%
6,O=C1Nc2ccc(I)cc2C1=Cc1ccc(Cl)cc1 [10736/B02],−38.8%
7,O=C1Nc2ccc(I)cc2C1=Cc1ccccc1C(F)(F)F [10736/B03],−51.7%
8,Cc1cccc(C=C2C(=O)Nc3ccc(I)cc32)c1 [10736/B04],−9.0%
9,Cc1ccc(C=C2C(=O)Nc3ccc(I)cc32)cc1 [10736/B05],14.9%
10,O=C1Nc2ccc(I)cc2C1=Cc1cccc(Cl)c1 [10736/B06],12.6%
11,O=C1Nc2ccc(I)cc2C1=Cc1cccc(F)c1 [10736/B07],8.4%
12,O=C1Nc2ccc(I)cc2C1=Cc1ccccc1F [10736/B08],8.4%
13,CCc1ccc(C=C2C(=O)Nc3ccc(I)cc32)cc1 [10736/B09],−3.5%
14,COc1cccc(C=C2C(=O)Nc3ccc(I)cc32)c1 [10736/B10],15.6%
15,O=C1Nc2ccc(I)cc2C1=Cc1ccccc1Cl [10736/B11],−3.7%
16,Cc1c(Br)ccc2c1C(=Cc1ccc(Cl)cc1)C(=O)N2 [10736/C02],−47.1%
17,Cc1c(Br)ccc2c1C(=Cc1ccccc1C(F)(F)F)C(=O)N2 [10736/C03],0.3%
18,Cc1cccc(C=C2C(=O)Nc3ccc(Br)c(C)c32)c1 [10736/C04],90.2%
19,Cc1ccc(C=C2C(=O)Nc3ccc(Br)c(C)c32)cc1 [10736/C05],16.8%
20,Cc1c(Br)ccc2c1C(=Cc1cccc(Cl)c1)C(=O)N2 [10736/C06],4.8%
21,Cc1c(Br)ccc2c1C(=Cc1cccc(F)c1)C(=O)N2 [10736/C07],−8.1%
22,Cc1c(Br)ccc2c1C(=Cc1ccccc1F)C(=O)N2 [10736/C08],−0.5%
23,CCc1ccc(C=C2C(=O)Nc3ccc(Br)c(C)c32)cc1 [10736/C09],4.6%
24,COc1cccc(C=C2C(=O)Nc3ccc(Br)c(C)c32)c1 [10736/C10],−0.3%
25,Cc1c(Br)ccc2c1C(=Cc1ccccc1Cl)C(=O)N2 [10736/C11],−4.5%
26,CNS(=O)(=O)c1ccc2c(c1)C(=Cc1ccc(Cl)cc1)C(=O)N2 [10736/D02],1.8%
27,CNS(=O)(=O)c1ccc2c(c1)C(=Cc1ccccc1C(F)(F)F)C(=O)N2 [10736/D03],−3.7%

row,SMILES,Biochem EGFR % Inhibition (P.167)
1,CNS(=O)(=O)c1ccc2c(c1)C(=Cc1cccc(C)c1)C(=O)N2 [10736/D04],24.9%
2,CNS(=O)(=O)c1ccc2c(c1)C(=Cc1ccc(C)cc1)C(=O)N2 [10736/D05],−7.9%
3,CNS(=O)(=O)c1ccc2c(c1)C(=Cc1cccc(Cl)c1)C(=O)N2 [10736/D06],29.7%
4,CNS(=O)(=O)c1ccc2c(c1)C(=Cc1cccc(F)c1)C(=O)N2 [10736/D07],47.1%
5,CNS(=O)(=O)c1ccc2c(c1)C(=Cc1ccccc1F)C(=O)N2 [10736/D08],90.9%
6,CCc1ccc(C=C2C(=O)Nc3ccc(S(=O)(=O)NC)cc32)cc1 [10736/D09],66.8%
7,CNS(=O)(=O)c1ccc2c(c1)C(=Cc1cccc(OC)c1)C(=O)N2 [10736/D10],10.5%
8,CNS(=O)(=O)c1ccc2c(c1)C(=Cc1ccccc1Cl)C(=O)N2 [10736/D11],51.7%
9,O=C1Nc2ccc(S(=O)(=O)Nc3ccc(C(F)(F)F)cc3)cc2C1=Cc1ccc(Cl)cc1 [10736/E02],2.0%
10,O=C1Nc2ccc(S(=O)(=O)Nc3ccc(C(F)(F)F)cc3)cc2C1=Cc1ccccc1C(F)(F)F [10736/E03],90.2%
11,Cc1cccc(C=C2C(=O)Nc3ccc(S(=O)(=O)Nc4ccc(C(F)(F)F)cc4)cc32)c1 [10736/E04],−17.2%
12,Cc1ccc(C=C2C(=O)Nc3ccc(S(=O)(=O)Nc4ccc(C(F)(F)F)cc4)cc32)cc1 [10736/E05],17.0%
13,O=C1Nc2ccc(S(=O)(=O)Nc3ccc(C(F)(F)F)cc3)cc2C1=Cc1cccc(Cl)c1 [10736/E06],47.3%
14,O=C1Nc2ccc(S(=O)(=O)Nc3ccc(C(F)(F)F)cc3)cc2C1=Cc1cccc(F)c1 [10736/E07],−26.7%
15,O=C1Nc2ccc(S(=O)(=O)Nc3ccc(C(F)(F)F)cc3)cc2C1=Cc1ccccc1F [10736/E08],−47.3%
16,CCc1ccc(C=C2C(=O)Nc3ccc(S(=O)(=O)Nc4ccc(C(F)(F)F)cc4)cc32)cc1 [10736/E09],−40.1%
17,COc1cccc(C=C2C(=O)Nc3ccc(S(=O)(=O)Nc4ccc(C(F)(F)F)cc4)cc32)c1 [10736/E10],−24.0%
18,O=C1Nc2ccc(S(=O)(=O)Nc3ccc(C(F)(F)F)cc3)cc2C1=Cc1ccccc1Cl [10736/E11],−74.1%
19,O=C1Nc2ccc(S(=O)(=O)N3CCOCC3)cc2C1=Cc1ccc(Cl)cc1 [10736/F02],−4.5%
20,O=C1Nc2ccc(S(=O)(=O)N3CCOCC3)cc2C1=Cc1ccccc1C(F)(F)F [10736/F03],94.0%
21,Cc1cccc(C=C2C(=O)Nc3ccc(S(=O)(=O)N4CCOCC4)cc32)c1 [10736/F04],−21.7%
22,Cc1ccc(C=C2C(=O)Nc3ccc(S(=O)(=O)N4CCOCC4)cc32)cc1 [10736/F05],−6.0%
23,O=C1Nc2ccc(S(=O)(=O)N3CCOCC3)cc2C1=Cc1cccc(Cl)c1 [10736/F06],25.1%
24,O=C1Nc2ccc(S(=O)(=O)N3CCOCC3)cc2C1=Cc1cccc(F)c1 [10736/F07],−12.1%
25,O=C1Nc2ccc(S(=O)(=O)N3CCOCC3)cc2C1=Cc1ccccc1F [10736/F08],−2.8%
26,CCc1ccc(C=C2C(=O)Nc3ccc(S(=O)(=O)N4CCOCC4)cc32)cc1 [10736/F09],6.3%
